Measured values: patent US20120171123A1, “USES AND COMPOSITIONS FOR TREATMENT OF RHEUMATOID ARTHRITIS” (priority 2006, published 2012)
Values joined by “and” are separate entries in the source; they are usually repeats but may differ in a detail not shown here. Identical values can stand only once. Like-named read-outs stand apart in the source and are kept apart here. Marks after values point to notes of the source that are not given here.

Legend:
[1] = test system: patients with long-standing RA who had inadequate responses to MTX; experiment: Study 1: ACR20/50/70 response; format: in vivo, human
Protocol: Patients were grouped into three cohorts based on baseline CRP concentrations: low (<1 mg/dL); intermediate (1-4 mg/dL); and high (>4 mg/dL). Analyses were further conducted in two categories of patients according to their change in CRP concentrations at Week 12: those with a ≧20% decrease in CRP from baseline; or those with a <20% decrease in CRP from baseline. The following efficacy and radiographic measures were analyzed at Week 52 in the three baseline CRP categories and in the two Week 12 change in CRP categories: DAS28, ACR 20/50/70, Health assessment questionnaire (HAQ), and Total Sharp score (TSS).
Two readers assessed X-rays performed at baseline (start of RCT), 1 year (end of RCT), and 3 years (post 2 years OLE). Changes from baseline in Total Sharp Score (TSS), Joint Erosions (JE), and Joint Space Narrowing (JSN) were calculated. ACR 20, 50, and 70 response rates, as well as TJC and SJC, were also measured.

[2] = test system: MTX-naïve adult patients with active, early RA (<3 years); experiment: Study J: clinical remission by DAS28<2.6; format: in vivo, human
Protocol: Clinical remission, defined as DAS28<2.6, is described below in Table 25.
Secondary endpoints included DAS28<2.6 at year 1 and Major Clinical Response (MCR=ACR70 response for ≧6 continuous months during a 2-year period).
At 1 and 2 years, the American College of Rheumatology (ACR) responses (ACR20, ACR50, and ACR70), the Disease Activity Score 28 (DAS28), and the change (Δ) in Total Sharp Score (TSS) were determined for all patients. Results were analyzed for the intention-to-treat (ITT) population using imputation for missing data. Clinical remission was defined as DAS28<2.6. The mean ΔTSS values at 1 year and 2 years (N=791) were determined for patients in each ACR response category (ACR20/50/70) and for patients with DAS28<2.6

[3] = test system: MTX-naïve adult patients with active, early RA (<3 years); experiment: Study J: individual clinical remission criteria (TJC=0, SJC=0, HAQ=0, morning stiffness=0); format: in vivo, human
Protocol: A total of 799 patients were enrolled. Baseline demographics and clinical characteristics of the patients enrolled in this study are described in Example 7. Baseline demographics and clinical characteristics were similar among the 3 arms, i.e., ada+mtx, ada alone, or mtx alone. […] After 1 and 2 years of therapy, the percentages of patients with ACR90 responses, TJC=0, SJC=0, HAQ=0, morning stiffness=0 minutes, and normal CRP were determined. Data are from the intention-to-treat (ITT) population with imputation used for missing values. Results were compared with the percentages of patients who achieved DAS28<2.6 or a Major Clinical Response (MCR).

[4] = test system: MTX-naïve adult patients with active, early RA (<3 years); experiment: Study J: treatment emergent adverse events; conditions: 2 years
From the text: Study J was a 2-year randomized controlled trial in patients with early RA (disease duration<3 years). Participants in these clinical trials and in other phase Mb studies, were routinely evaluated for safety. Reports of serious adverse events (SAE) were tabulated using MedDRA coding by events per 100-patient-years (E/100PY). SAE rates were compared with respect to disease duration between patients with early (<3 yrs) and long-standing RA.

[5] = test system: MTX-naïve adult patients with active, early RA (<3 years); experiment: Study J: subject disposition and withdrawals; conditions: 2 years
[6] = test system: patients with long-standing RA; experiment: Study 4: change in dosing of concomitant corticosteroids and methotrexate; format: in vivo, human
From the text: The mean corticosteroid dose (mg/day) at baseline was 5.56, where the mean corticosteroid dose (mg/day) at the final dose was 3.57 (p<0.0001 (determined by Wilcoxon's signed rank test)).
There was also a change in the dosing of concomitant methotrexate for RA patients in the study being treated with adalimumab. […] For only 8% of patients was the dose of mtx increased.

[7] = test system: patients with moderate to severe rheumatoid arthritis; experiment: Study C (Canadian open-label, adalimumab 40 mg sc eow add-on): TJC/SJC; format: in vivo, human
Protocol: The Canadian Adalimumab Clinical Trial (Study C) was an open-label, multi-center, Phase IIIb study conducted in Canada. […] Efficacy and safety were assessed at baseline, 4, 8, and 12 weeks. Efficacy assessments included tender joint count (TJC 0-28), swollen joint count (SJC 0-28), Disease Activity Score 28 (DAS28), Health Assessment Questionnaire (HAQ), and EULAR response. This was a preliminary analysis of 236 patients. The sample size for each outcome variable is based on the data available at the time of the analysis. The data from this preliminary analysis were compared with the Week 12 data from Study A (N=2008).

[8] = test system: patients with active rheumatoid arthritis; conditions: Study A (N=2008), 12 weeks; cited from earlier work
[9] = test system: RA patients treated with adalimumab in clinical trials in North America and Europe
Protocol: The rate of TB was calculated for the period before screening was initiated (primarily Phase I trials) and the period after screening was implemented. The screening program consisted of a clinical interview, a tuberculin skin test, and, in most patients, a chest X-ray (CXR). The definition of PPD-positive depended on local country-specific guidelines. For those people who were PPD-positive, or for whom the investigator felt the risk of TB reactivation was high, INH was given for prophylaxis.
The methodology differed among protocols. For instance, in Europe and Australia, it was initially used CXR only, and in later studies, CXR and purified protein derivative skin test (PPD) were both used. By contrast, in US and Canada, CXR and PPD were both used.

[10] = week 52, baseline CRP 1-4 mg/dL
[11] = Study C, 12 weeks, preliminary analysis
[12] = US/Canada and Europe RA trials through December 2004

Compound: CN(Cc1cnc2nc(N)nc(N)c2n1)c1ccc(C(=O)N[C@@H](CCC(=O)O)C(=O)O)cc1 [mtx alone, methotrexate]
- ACR20 [1, 10]: 36 % responders
- ACR50 [1, 10]: 18 % responders
- ACR70 [1, 10]: 9 % responders
- ACR20 ([1]; week 52, baseline CRP <1 mg/dL): 30 % responders
- ACR50 ([1]; week 52, baseline CRP <1 mg/dL): 13 % responders
- ACR70 ([1]; week 52, baseline CRP <1 mg/dL): 6 % responders
- ACR20 ([1]; week 52, baseline CRP >4 mg/dL): 47 % responders
- ACR50 ([1]; week 52, baseline CRP >4 mg/dL): 0 % responders
- ACR70 ([1]; week 52, baseline CRP >4 mg/dL): 0 % responders
- clinical remission, DAS28 < 2.6 ([2]; week 52 (1 year)): 21 % of patients
- clinical remission, DAS28 < 2.6 ([2]; week 104 (2 years)): 25 % of patients
- HAQ = 0 ([3]; 1 year): 19 % patients
- Morning Stiffness = 0 ([3]; 1 year): 31 % patients
- SJC = 0 ([3]; 1 year): 17 % patients
- TJC = 0 ([3]; 1 year): 14 % patients
- AM (morning) stiffness = 0 ([3]; 2 years): 30 % of patients
- HAQ = 0 ([3]; 2 years): 19 % of patients
- SJC = 0 ([3]; 2 years): 19 % of patients
- TJC = 0 ([3]; 2 years): 21 % of patients
- All infectious AE [4]: 119 Events/100-PY
- Demyelination [4]: 0.0 Events/100-PY
- Lymphoma [4]: 0.2 Events/100-PY
- Malignancies [4]: 0.9 Events/100-PY
- Pancytopenia [4]: 0.2 Events/100-PY
- Serious AE [4]: 15.9 Events/100-PY
- Serious Infectious AE [4]: 1.6 Events/100-PY
- Tuberculosis [4]: 0.0 Events/100-PY
- withdrawn, reason AE [5]: 8%
- withdrawn, reason lack of efficacy [5]: 18%

Compound: adalimumab: human anti-TNF mAb (HUMIRA, Abbott Laboratories), described in U.S. Pat. No. 6,090,382 as D2E7
- ACR20 ([1]; month 12): 69%
- ACR50 ([1]; month 12): 48%
- ACR70 ([1]; month 12): 26%
- ACR20 ([1]; month 24): 63%
- ACR50 ([1]; month 24): 43%
- ACR70 ([1]; month 24): 28%
- ACR20 ([1]; month 36): 58%
- ACR50 ([1]; month 36): 42%
- ACR70 ([1]; month 36): 24% and 23%
- mean concomitant corticosteroid dose ([6]; at final dose (baseline 5.56)): 3.57 mg/day
- mean concomitant mtx dose ([6]; at final dose of adalimumab (baseline 15.79)): 13.81 mg/week
- patients with dose reduction of steroids ([6]; n=294): 29%
- patients with increased steroid dose ([6]; n=294): 6%
- patients with unchanged steroid dose ([6]; n=294): 40%
- patients with increased mtx dose ([6]; n=546): 8%
- patients with mtx dose reduction ([6]; n=546): 32%
- patients with unchanged mtx dose ([6]; n=546): 60%
- patients able to discontinue steroids ([6]; patients on concomitant corticosteroids, n=294): 24%
- clinical remission, DAS28 < 2.6 ([2]; week 52 (1 year)): 23 % of patients
- clinical remission, DAS28 < 2.6 ([2]; week 104 (2 years)): 25 % of patients
- HAQ = 0 ([3]; 1 year): 17 % patients
- Morning Stiffness = 0 ([3]; 1 year): 32 % patients
- SJC = 0 ([3]; 1 year): 16 % patients
- TJC = 0 ([3]; 1 year): 18 % patients
- AM (morning) stiffness = 0 ([3]; 2 years): 30 % of patients
- HAQ = 0 ([3]; 2 years): 19 % of patients
- SJC = 0 ([3]; 2 years): 19 % of patients
- TJC = 0 ([3]; 2 years): 15 % of patients
- SJC (0-28), change from baseline, median [7, 11]: −7 (123)
- TJC (0-28), change from baseline, median [7, 11]: −10 (123)
- mean SJC ([7]; week 12 (baseline 14)): 7.4
- mean TJC ([7]; week 12 (baseline 17)): 8.1
- HAQ (mean), change from baseline [8]: −0.49
- TB cases: Culture positive [9, 12]: 62%
- TB cases: Extrapulmonary [9, 12]: 65%
- TB: Total Cases [9, 12]: 34
- TB cases: Median months from treatment to diagnosis (range) ([9]; US/Canada and Europe RA trials through December 2004, range 1-54): 7.2 months (1-54)
- cases of TB ([9]; after screening): 27 cases
- rate of TB ([9]; after screening, 14,010 pt-yrs): 0.0019 /pt-yr
- rate of TB ([9]; after screening, Europe): 0.0027
- rate of TB ([9]; after screening, North America): 0.0008
- cases of TB ([9]; before screening): 7 cases
- rate of TB ([9]; before screening, 534 pt-yrs): 0.013 /pt-yrs
- reduction in the rate of developing TB with screening ([9]; human, in vivo): 85%
- TB cases: Outcome Resolved ([9]; of 34 cases, one patient died of unrelated causes): 32**
- median time to the development of TB ([9]; range 14-1636): 167 days
- Tuberculosis [4]: 0.0 Events/100-PY
- withdrawn, reason lack of efficacy [5]: 19%
